From patent publication US8236523B2, “Camp reporters and high throughput assays” (The Johns Hopkins University, priority 2004, dated 2012)
Entries after “also recorded” stand apart in the source; their conditions may differ.

Key:
Type in all cases: cell-based
[1] = system: cAMP; assay: Dual-emission ratio (FRET) imaging of Epac-based cAMP reporters (ICUE1 and targeted fusions) in HEK-293 cells; conditions: for increase in the ratio of cyan to yellow emissions (FRET response): HEK293 cells expressing ICUE1, 10 μM ISO, 50 μM FSK, 10 μM PGE1, 300 μM 8-pCPT-2′-O-Me-cAMP, average ± S.E.M; for increase in emission ratio of cyan to yellow upon cAMP elevations: ECFP/citrine reporters with truncated Epac2, HEK-293 cells
Method: Cell Culture. […] Cells were then transfected with FuGENE-6 transfection reagent (Roche) or calcium phosphate and allowed to grow for 12-24 hours before imaging.
Imaging. Cells were washed twice with Hanks' balanced salt solution buffer after 12- to 24-h incubation at 37° C. culture medium. Cells were maintained in buffer in the dark at room temperature with addition of isoproterenol (Aldrich), forskolin (Calbiochem), Prostaglandin E1 (PGE1) (Sigma), and 8-(4-chloro-phenylthio)-2′-O-methyl adenosine 3′,5′-monophosphate (8-pCPT-2′-O-Me-cAMP) (Axxora Biolog) as indicated. Cells were also treated with P-(4,5-dimethoxy-2-nitrobenzyl) adenosine 3′,5′-monophosphate (DMNB-cAMP) (Molecular Probe).
Cells were imaged on a Zeiss Axiovert 200M microscope with a cooled charge-coupled device camera MicroMAX BFT512 (Roper Scientific) controlled by METAFLUOR 6.2 software (Universal Imaging). Dual-emission ratio imaging used a 420DF20 excitation filter, a 450DRLP dichroic mirror and two emission filters (475DF40 for ECFP, 535DF25 for citrine) alternated by a filter changer Lambda 10-2 (Sutter Instruments). Exposure time was 100-500 ms and images were taken every 8-30 s. Fluorescent images were background-corrected by subtracting autofluorescence intensities of untransfected cells (or background with no cells) from the emission intensities of fluorescent cells expressing reporters. The ratios of cyan to yellow emissions were then calculated at different time points and normalized by dividing all ratios by the emission ratio just prior to stimulation therefore setting the basal emission ratio to 1.

[2] = system: cAMP; assay: 96-well live cell plate reading of HEK293 cells expressing ICUE3; conditions: for effect on ISO-stimulated response of ICUE3: PRO 10 μM
Method: Plate reading used a 420DF20 excitation filter and two emission filters (470DF40 for cyan and 535DF25 for yellow). A baseline was established in three cycles, each consisting of a full plate reading of yellow intensity, followed by a reading of cyan intensity. Cells were then treated with isoproterenol (ISO; Aldrich), forskolin (Calbiochem), H89, propranolol, and 3-isobutyl-1-methylxanthine (IBMX) as indicated. Readings were taken in six or twenty additional cycles. Each cycle lasted 60 to 145 sec. Baseline FRET ratios were calculated as the average ratio of yellow/cyan for each well before the addition of drug. FRET change was calculated as the percent increase of FRET ratio over baseline for each well during a given cycle. The FRET changes of all wells having undergone the same drug treatment were then averaged within each cycle, and that cycle was correlated with time.
Live cell plate reading. HEK293 cells were transfected with cDNA encoding ICUE reporters using calcium phosphate at 40% confluency and allowed to grow for 40 hours. Cells were then trypsinized and plated in a Costar 3603 96-well assay plate (Coming) at a density of 150,000 cells per well. After incubation for another 24 hours, cells were washed once with HBSS and left in 150 μl HBSS at 20-25° C. Fluorescence reading was taken on a FLUOstar OPTIMA fluorescence microplate reader (BMG Labtechnologies Inc.) using a 420DF20 excitation filter and two emission filters (470DF40 for cyan and […] for yellow). A baseline was established in three cycles, each consisting of a full plate reading of yellow intensity, followed by a reading of cyan intensity. Each cycle lasted between 64 and 145 seconds. Readings were taken in additional cycles. FRET change was calculated as the percent increase of emission ratios (cyan-to-yellow) over baseline for each well during a given cycle. To assess the efficacy of the assay, several statistical parameters were calculated, including Z factor, coefficient of variation, and signal-to-noise ratio (Zhang et al., J. Biomol. Screen. 4, 67-73, 1999).

[3] = system: cAMP; assay: High throughput 96-well plate assay using ICUE2 stable HEK293 cells; conditions: 1 μM ISO, 100 μM IBMX, 50 μM FSK
Method: HEK293 cells which stably express ICUE2 (“ICUE2 stable HEK293 cells”) were grown to confluency in 10 cm dishes in DMEM, 10% FBS, 1% penicillin/streptomycin, and 250 μg/ml G418. HEK-293 cells were transfected with cDNA encoding ICUE2 using calcium phosphate at 40% confluency and allowed to grow for 40 hours. Cells were removed from the dish using 0.05% trypsin, spun down, and replaced with fresh media. ICUE2 stable HEK293 cells were counted on a hemocytometer using trypan blue stain. One hundred fifty thousand (150,000) cells were plated per well on a 96-well clear bottom assay plate in a total of 0.2 ml of media per […] and allowed to double once. Media was removed, cells were washed with Hanks buffered salt solution (HBSS) and then covered with 0.05 ml of HBSS per well. In a separate sterile plate, appropriate drugs were added to each well containing HBSS for a total volume of 0.05 ml. […] A baseline was established in three cycles, each consisting of a full plate reading of yellow intensity, followed by a reading of cyan intensity. Cells were then treated with isoproterenol (ISO; […] Readings were taken in six or twenty additional cycles. […] Baseline FRET ratios were calculated as the average ratio of yellow/cyan for each well before the addition of drug. FRET change was calculated as the percent increase of FRET ratio over baseline for each well during a given cycle. The FRET changes of all wells having undergone the same drug treatment were then averaged within each cycle, and that cycle was correlated with time.

[4] = 50 μM FSK, 10 μM PRO, 10 μM H89
[5] = plasma membrane-targeted ICUE1, 10 μM PGE1
[6] = ICUE1, 10 μM propranolol added after isoproterenol response reached plateau

## CO[C@@H]1[C@@H]2OP(=O)(O)OC[C@H]2O[C@H]1n1c(Sc2ccc(Cl)cc2)nc2c(N)ncnc21 [8-pCPT-2′-O-Me-cAMP, 8-(4-chloro-phenylthio)-2′-O-methyl adenosine 3′,5′-monophosphate]
[1]
  increase in the ratio of cyan to yellow emissions (FRET response): 12.8%±0.9
[1]; ICUE1, 300 μM
  time to produce a half-maximal increase in emission ratios (t1/2): 10 to 15 min

## COc1cc(COP2(=O)OCC3OC(n4cnc5c(N)ncnc54)C(O)C3O2)c([N+](=O)[O-])cc1OC (stereo not drawn) [DMNB-cAMP, P-(4,5-dimethoxy-2-nitrobenzyl) adenosine 3′,5′-monophosphate]
[1]; ICUE1, 100 μM DMNB-cAMP for 3 minutes, UV flash of 5 seconds
  increase of emission ratio after UV uncaging: 4.7%±0.7
[1]; ICUE1, 100 μM DMNB-cAMP, UV flash of 5 seconds
  time of emission ratio increase after UV uncaging: 15 to 30 s

## O=S(=O)(NCCNC/C=C/c1ccc(Br)cc1)c1cccc2cnccc12 [H89]
[2]; [4]
  effect on FSK-stimulated response of ICUE3: did not diminish the response of ICUE3; also recorded: appeared to increase the response amplitude

## CC(C)Cn1c(=O)n(C)c(=O)c2[nH]cnc21 [IBMX, 3-isobutyl-1-methylxanthine]
[2]; 1 μM ISO, 100 μM IBMX
  effect on ISO-stimulated response of ICUE3: sustained the response and increased its amplitude
[3]
  character of ICUE2 response (in words): increased the amplitude and sustained the responses

## CCCCC[C@H](O)/C=C/[C@H]1[C@H](O)CC(=O)[C@@H]1CCCCCCC(=O)O [PGE1, Prostaglandin E1]
[1]
  increase in the ratio of cyan to yellow emissions (FRET response): 13.3%±0.9
[1]; NLS-ICUE1, 10 μM PGE1
  FRET response in the nucleus: 3.4%±0.4
[1]; [5]
  emission ratio increase at the plasma membrane: 12.6%±0.9
  time of emission ratio increase at the plasma membrane: 2 to 3 min

## CC(C)NCC(O)COc1cccc2ccccc12 (stereo not drawn) [propranolol]
[2]; 0 sec., HEK293 cells expressing ICUE3, 1 μM ISO, 50 μM FSK, 10 μM PRO, 100 μM IBMX, 10 μM H89
  Average percent FRET response ± standard deviation, 0 sec.: 7.61% ± 3.19%
[2]; 1 μM ISO, 100 μM IBMX
  effect on ISO-stimulated response of ICUE3: inhibited
[2]; [4]
  effect on FSK-stimulated response of ICUE3: had no effect
[2]; 145 sec., HEK293 cells expressing ICUE3, 1 μM ISO, 50 μM FSK, 10 μM PRO, 100 μM IBMX, 10 μM H89
  Average percent FRET response ± standard deviation, 145 sec.: 8.1% ± 1.38%
[2]; 290 sec., HEK293 cells expressing ICUE3, 1 μM ISO, 50 μM FSK, 10 μM PRO, 100 μM IBMX, 10 μM H89
  Average percent FRET response ± standard deviation, 290 sec.: 6.54% ± 1.37%
[2]; 435 sec., HEK293 cells expressing ICUE3, 1 μM ISO, 50 μM FSK, 10 μM PRO, 100 μM IBMX, 10 μM H89
  Average percent FRET response ± standard deviation, 435 sec.: 3.73% ± 0.911%
[2]; 580 sec., HEK293 cells expressing ICUE3, 1 μM ISO, 50 μM FSK, 10 μM PRO, 100 μM IBMX, 10 μM H89
  Average percent FRET response ± standard deviation, 580 sec.: 2.57% ± 1.33%
[2]; 725 sec., HEK293 cells expressing ICUE3, 1 μM ISO, 50 μM FSK, 10 μM PRO, 100 μM IBMX, 10 μM H89
  Average percent FRET response ± standard deviation, 725 sec.: 1.83% ± 1.06%
[1]; ICUE1, HEK293 cells, propranolol present
  effect on isoproterenol-stimulated FRET response: prevented the isoproterenol-stimulated response
[1]; [6]
  time of full recovery of emission ratio: 6 to 8 min
  time of initial decrease in emission ratio of cyan to yellow: 2 to 3 min

B1: P350-A501: ECFP and citrine fused with Epac2 domain, amino acids 350-501 of SEQ ID NO:20 (protein, listed as Mus musculus)
chain: ELLHIKALSHLSTTVKRELAGVLIFESHAKGGTVLFNQGEEGTSWYIILKGSVNVVIYGKGVVCTLHEGDDFGKLALVNDAPRAASIVLREDNCHFLRVDKEDFNRILRDVEANTVRLKEHDQDVLVLEKVPAGNRAANQGNSQPQQKYTVM
modifications: fused between ECFP and citrine
[1]
  increase in emission ratio of cyan to yellow upon cAMP elevations: did not show a cAMP-dependent FRET change

B2: T316-A501: ECFP/citrine reporter with Epac2 amino acids 316-501 of SEQ ID NO:20 (protein, listed as Mus musculus)
chain: MLLLSQMGPDAHMRMILRKPPGQRTVDDLEIIYDELLHIKALSHLSTTVKRELAGVLIFESHAKGGTVLFNQGEEGTSWYIILKGSVNVVIYGKGVVCTLHEGDDFGKLALVNDAPRAASIVLREDNCHFLRVDKEDFNRILRDVEANTVRLKEHDQDVLVLEKVPAGNRAANQGNSQPQQKYTVM
modifications: fused between ECFP and citrine
[1]
  increase in emission ratio of cyan to yellow upon cAMP elevations: 5%
